From US3937838A, “Orally active bronchospasmolytic compounds and their preparation” (priority 1966, dated 1976)

Key:
[1] = test system: spirally cut trachea from the guinea pig; assay: Dual preparation test in vitro, effect on trachea (Example 5c); conditions: slow infusion; 0.375 μg/min where stated; FIGS. 2-4
Source text: (§1) [This procedure is more fully described below in Example 5 (b)].
FIG. 2 illustrates the effect of epinephrine (EPE) and terbutaline on spirally cut trachea and right auricle from the guinea pig. Both preparations are dissected out from the same animal and run under identical experimental conditions;
Both preparations are dissected out from the same animal, and run under identical experimental conditions;
Both preparations are dissected out from the same animal and run under identical experimental conditions;
The relation between the heart stimulatory effect and bronchodilator effect was studied in vitro on auricle-trachea-preparation from the guinea pig in order to compare the effect on the heart and the effect on the bronchial muscle under identical experimental conditions. Both spontaneously bearing auricle and spirally-cut trachea were placed in the same bath in Krebs solution. Both preparations were taken from the same animal.
The compound to be tested was slowly infused into the bathing solution and the tension was measured for each of the auricle and trachael preparations.
In carrying out this dual preparation test, epinephrine was used as a reference. […] Infusion of epinephrine was made over a period of ten minutes. After washing and recovery, the test solution was infused in the same manner and the effect of the test compound was compared with the effect of epinephrine.

[2] = test system: spirally cut trachea from the guinea pig; assay: Bronchospasmolytic effect in vitro (Example 5a), spirally cut trachea; conditions: at ED50; pilocarpine contracted; racemic terbutaline
Procedure: Pharmacol. Exp. Ther. 90 (1947) page 104] and later modified by Constantine [J. Pharm. Pharmacol. 17 (1965) page 384]. In this test, guinea pigs are stunned with a blow on the head and bled to death. The trachea is dissected out, cut spirally and mounted in an organ bath (25 ml) in Krebs solution continuously aerated with oxygen (95%) and carbon dioxide (5%). […] The tension of the preparation is measured and is usually about 2 gm. initially. Dose response curves for epinephrine and each of the test compounds are then evaluated on the same muscle preparation.

[3] = test system: bronchial muscle and heart
Source text: as §1

[4] = test system: cardioaccelerating effect; conditions: in vivo
Source text: as §1

asthmatic patients = assay: Clinical trials, arterial oxygen tension in asthmatic patients; assay type: in vivo, human; conditions: a number of clinical trials
Source text: Because stimulation of the cardiovascular system is thought to be a cause of the adverse effects of many of the prior art compounds on blood oxygen pressures, it is expected that the compounds of the present invention will be less likely to lead to a fall in blood oxygen pressure then compounds such as epinephrine or isoprenaline. The compounds of the present invention have the added advantage of improved longevity of action over all of the compounds described above. […] This improvement has been observed in a number of clinical trials.

guinea pig trachea = assay: Bronchospasmolytic effect in vitro (Example 13); conditions: based on ED50-values; weight basis; Table 7
Procedure: The trachea from a guinea pig was dissected out and spirally cut. It was mounted in a water-jacketed bath (37°C.) in Krebs solution and aerated with oxygen (95%) and carbon dioxide (5%). Pilocarpine (2 μg/ml) was added. The load was adjusted to about 2 g and relaxations in the trachea were recorded by means of a Grass force displacement transducer and a Grass polygraph model 5 (see Example 5 above). The cumulative method was used (-)-Epinephrine was used as reference. The comparisons presented in Table 7 are based on ED50 -values.

[5] = Acute toxicity in mice (Example 9); conditions: mouse, in vivo, mice (base)

Structure (SMILES): CC(C)(C)NCC(O)c1cc(O)cc(O)c1 (racemic) [terbutaline, 1-(3',5'-dihydroxyphenyl)-2-(t-butylamino)-ethanol]
- effect on trachea (relaxation) [1]: nearly comparable to that of epinephrine infused at the same rate
- relaxation of trachea, activity relative to orciprenaline [2]: about two
- relaxation of trachea, potency relative to (-)-epinephrine [2]: slightly less potent than (-)-epinephrine
- duration of effect versus orciprenaline [3]: longer than that of orciprenaline
- bronchodilator potency versus orciprenaline ([3]; in vitro and in vivo): more potent bronchodilator
- cardioaccelerating effect [4]: weak cardioaccelerating effect
- arterial oxygen tension (asthmatic patients): improved arteriel oxygen tension in asthmatic patients
- bronchospasmolytic effect x (-)epinephrine (guinea pig trachea): 0.8 ± 0.1
- LD50 ([5]; iv): 47 mg/kg
- LD50 ([5]; sc): 240 mg/kg
- LD50 ([5]; oral): 3200 mg/kg
